Test results reported in patent US20030166548A1, “PLAP polypeptides and methods of producing and using same” (Board of Regents, The University of Texas System, priority 1997, published 2003).
“And” between values parts separate entries of the source, which are not always exact repeats. Equal entries are not always repeated.

Legend:
human serum PLA2 (human) [1] = biological target: human serum PLA2 (human) (UniProt P04054)
[2] = biological target: PLA2 of synovial fluid from rheumatoid arthritis patients (human (rheumatoid arthritis patients)) (UniProt P14555); assay: cell-based or functional assay
human serum PLA2 (human) [3] = biological target: human serum PLA2 (human) (UniProt P04054); assay: cell-based or functional assay
PLA2 from bee venom [4] = biological target: T1, PLA2 from bee venom (Apis mellifera, UniProt P00630); type: biochemical
[5] = biological target: T2, PLA2 from bovine pancreas (Bos taurus, UniProt P00593); assay: PLA2 assay using unsonicated vesicles; type: biochemical; details: Bovine P., peptide 1 μg
T2 sequence (P00593 23-145): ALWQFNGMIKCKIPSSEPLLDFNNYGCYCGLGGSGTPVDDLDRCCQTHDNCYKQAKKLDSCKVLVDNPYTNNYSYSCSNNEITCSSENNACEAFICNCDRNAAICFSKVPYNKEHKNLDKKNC
Description: (§1) In general, assays involve incubation of purified PLA2 or a mixture believed to contain PLA2, such as synovial fluid, with a PLA2 substrate containing radio-labeled arachidonic acid in the presence of the inhibitor of interest. Suitable substrates for PLA2 reactions include any glycerol-3-phosphate with arachidonic acid substituted at the sn-2 position. The preferred substrates of the assays of this invention include [^14C]-arachidonic acid-substituted phosphatidylcholine or [^14C]-arachidonic acid-substituted phosphatidylethanolamine. After the reaction is stopped by addition of chloroform and methanol, TLC chromatography is used to separate the released [^14C] arachidonic acid from [^14C] arachidonic acid-labeled phosphatidylcholine/ethanolamine, which may be quantified by scintillation counting.
(§2) Radiolabeled phosphatidylcholine or phosphatidylethanolamine containing [^14C]-arachidonic acid in the sn-2 position of the phospholipid was dried under nitrogen and the lipid vesicles were prepared in 0.05% Triton X-100. The reaction mixture contained 10 μl of phospholipid substrate, 10 μl of 5× assay buffer (500 mM Tris[hydroxymethyl]aminomethane […]HCl (Tris HCl), pH 8.0; 500 mM NaCl; 5.0% fatty acid-free bovine serum albumin (BSA); and 5 mM CaCl2), 10 μl PLA2 enzyme preparation, and sufficient H2O to adjust the total volume to 50 μl The reaction mixture was incubated for 30 minutes at 37° C. in a waterbath and stopped by the addition of 50 μl of chloroform and methanol (1:3), containing 200 μg/ml of unlabeled arachidonic acid and then the mixture was vortexed Lipid was extracted by adding 50 μl of chloroform and 50 μl of 4M KCl, after which, the mixture was vortexed and centrifuged in a microfuge at 14,000 rpm for 10 minutes A 25 μl aliquot of the organic phase was spotted onto glass silica gel plates (Whatman LK6DF) and placed in a thin layer chromatography chamber with a solvent system containing petroleum ether, diethyl ether, and acetic acid (5:25:1) for 30 minutes. The lipid spots were made visible by placing the silica gel plates in a chamber containing iodine vapor. The silica gel region corresponding to arachidonic acid was scraped and transferred to scintillation vials containing 10 ml of scintillation cocktail, which is commercially available and designed to measure the amount of radioactivity in aqueous samples when used with a liquid scintillation counter. The amount of radionuclide corresponding to [^14C]-arachidonic acid in each vial was determined in a Beckman liquid scintillation counter. Results of these assays are shown in Tables 1 and 2 listed after Example 3.

PLA2 from snake venom [6] = assay: PLA2 assay using unsonicated vesicles; type: biochemical; details: Snake V., peptide 1 μg
Description: as §1, §2

[7] = test system: PLA2 from synovial fluid from rheumatoid arthritis patients; assay: PLA2 assay using unsonicated vesicles; type: biochemical, human; details: Synovial F., peptide 1 μg
Description: as §1
Radiolabeled phosphatidylcholine or phosphatidylethanolamine containing [^14C]-arachidonic acid in the sn-2 position of the phospholipid was dried under nitrogen and the lipid vesicles were prepared in 0.05% Triton X-100. […] The silica gel region corresponding to arachidonic acid was scraped and transferred to scintillation vials containing 10 ml of scintillation cocktail, which is commercially available and designed to measure the amount of radioactivity in aqueous samples when used with a liquid scintillation counter. […]

PLA2 from bee venom [8] = biological target: T1, PLA2 from bee venom; assay: biochemical; type: biochemical
[9] = biological target: T2, PLA2 from bovine pancreas; assay: PLA2 assay using [3H]-oleic acid labeled E. coli; type: biochemical; details: Bovine P., peptide 1 μg
Description: (§3) PLA2 activity may also be assayed using [^3H]-oleic acid labeled Escherichia coli, in a modification of the procedure previously described by [Elsbach and Weiss, 1991]. E. coli cells grown in the presence of [^3H]-oleic acid are incubated with PLA2 enzyme. The reaction is quenched either by addition of 1M HCl or by dilution in cold phosphate buffered saline (PBS). The amount of [^3H]-oleic acid released from the E. coli cells by PLA2 is measured using scintillation counting.
(§4) The procedure is a modification of that described by Elsbach and Weiss (1991). E. coli strain SJ198 was grown in 10 ml M9 minimal medium plus 50 μl glycerol, 100 μl vitamin mix, 40 μl methionine (25 mg/ml), 50 μl [^3H]-oleic acid (0.1 μCi/μl), and 100 μl casamino acids (100 mg/ml). After incubation at 37° C. overnight, the culture was centrifuged and washed three times in PBS, autoclaved for 15 minutes, washed again three times in PBS and stored at −70° C. The reaction mixture contained 10 μl of 5×assay of the PLA2 enzyme preparation, 10 μl of [^3H]-oleic acid-labeled E. coli cells, and enough H2O to adjust the total volume to 50 μl. The reaction mixture was incubated for 15 minutes at 37° C. in a waterbath. To stop the reaction, the tubes were transferred immediately to an ice bath and an equal volume of either 1 M HCl or 4 volumes cold PBS was added. After centrifugation in a microfuge at 4° C. for 10 minutes, an aliquot equal to 25% of the volume of the supernatant was used to measure the amount of [^3H]-labeled oleic acid released from the E. coli cells by PLA2 using liquid scintillation counting.

PLA2 from snake venom [10] = assay: PLA2 assay using [3H]-oleic acid labeled E. coli; type: biochemical; details: Snake V., peptide 1 μg
Description: as §3, §4

[11] = test system: PLA2 from synovial fluid from rheumatoid arthritis patients; assay: PLA2 assay using [3H]-oleic acid labeled E. coli; type: biochemical, human; details: Synovial F., peptide 1 μg
Description: as §3
as §4, with “After centrifugation in a microfuge at 4° C. for 10 minutes, an aliquot equal to 25% of the volume of the supernatant was used to measure the amount of [^3H]-labeled oleic acid released from the E. coli cells by PLA2 using liquid scintillation counting.” left out

[12] = biological target: T3, affinity-purified PLA2 enzyme isolated from synovial fluid of rheumatoid arthritis patients (Homo sapiens, UniProt P14555); assay: PLA2 assay, unsonicated vesicles labeled with [14C]-phosphatidylcholine, affinity-purified enzyme; type: biochemical
T3 construct: from tissue
T3 sequence (P14555 21-144): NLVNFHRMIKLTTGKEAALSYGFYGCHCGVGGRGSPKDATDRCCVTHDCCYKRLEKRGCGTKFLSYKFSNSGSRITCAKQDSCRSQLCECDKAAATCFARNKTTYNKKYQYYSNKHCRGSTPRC
Description: as §2

[13] = biological target: T3, affinity-purified PLA2 enzyme isolated from synovial fluid of rheumatoid arthritis patients; assay: PLA2 assay, [3H]-oleic acid-E. coli, affinity-purified enzyme; type: biochemical; details: mean of three determinations
Description: as §4

Human serum PLA2 = assay: PLA2 assay of human serum fractions eluted from MLT-Sepharose column, [3H]-oleic acid-labeled E. coli substrate; type: biochemical; details: for PLA2 activity: Melittin 5 μM
Description: as §4
Isolation of PLA2 from human serum: 10 ml of heat-inactivated human serum Gemini Bio Product Inc. (Calabasas, Calif.) was diluted 1:10 with PBS and loaded onto Melittin-Sepharose as well as PLAP-Sepharose columns pre-equilibrated with PBS. Columns were washed with 500 ml of PBS overnight and eluted with 0.5M glycine/HCl buffer, pH 2.8 and 2 ml fractions were collected, neutralized to pH 7.2 with Tris-HCl buffer and analyzed for PLA2 activity using [^3H]labeled oleic acid—E. coli cells as substrate. Eluted fractions were concentrated and dialyzed in centricon 10 (Amicon, Inc., Beverly, Mass.) and the pass through was discarded. The retentate was again passed through centricon 30 and concentrated to about ⅕th of the volume. Both retentate and pass through were subjected to PLA2, assay with and without melittin.

phospholipase D (PLD) = assay: Synthetic melittin added to dissociated membranes from U-937 cells; type: biochemical; details: dissociated membranes from human monocyte cell line U-937
synovial fluid PLA2 = assay: Interference of streptavidin-peroxidase binding to biotin-melittin by synovial fluid PLA2; design: species or system human; details: plate coated with biotinylated synthetic melittin, FIG. 6B
[14] = biological target: T4, bee venom PLA2 (bee), P00630; assay: cell-based or functional assay
T4 chain: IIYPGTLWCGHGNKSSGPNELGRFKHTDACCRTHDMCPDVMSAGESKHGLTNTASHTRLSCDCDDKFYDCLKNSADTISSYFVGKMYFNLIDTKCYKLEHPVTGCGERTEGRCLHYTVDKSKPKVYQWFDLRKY

[15] = A: [14C]-phosphatidylcholine vesicles
[16] = B: phosphatidylethanolamine vesicles
[17] = C: [3H]-oleic acid-labeled E. coli, stopped with cold PBS
[18] = D: [3H]-oleic acid-labeled E. coli, stopped with 1N HCl

human serum PLA2 (human), sequence (P04054 23-148 limits assumed): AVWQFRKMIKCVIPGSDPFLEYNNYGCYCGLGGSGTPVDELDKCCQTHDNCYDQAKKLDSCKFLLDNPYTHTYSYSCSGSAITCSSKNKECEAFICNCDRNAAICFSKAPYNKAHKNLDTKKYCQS

## synthetic melittin (peptide)
Human serum PLA2 (human) [1]
  Purification: 1520 fold
[2]
  Inhibitory Potency: 80%
Human serum PLA2 (human) [3]
  reduction in PLA2 activity in the presence of melittin: 4 fold

## CC[C@H](C)[C@H](NC(=O)CN)C(=O)NCC(=O)N[C@@H](C)C(=O)N[C@H](C(=O)N[C@@H](CC(C)C)C(=O)N[C@@H](CCCCN)C(=O)N[C@H](C(=O)N[C@@H](CC(C)C)C(=O)N[C@H](C(=O)N[C@H](C(=O)NCC(=O)N[C@@H](CC(C)C)C(=O)N1CCC[C@H]1C(=O)N[C@@H](C)C(=O)N[C@@H](CC(C)C)C(=O)N[C@H](C(=O)N[C@@H](CO)C(=O)N[C@@H](Cc1c[nH]c2ccccc12)C(=O)N[C@H](C(=O)N[C@@H](CCCCN)C(=O)N[C@@H](CCCNC(=N)N)C(=O)N[C@@H](CCCCN)C(=O)N[C@@H](CCCNC(=N)N)C(=O)N[C@@H](CCC(N)=O)C(=O)N[C@@H](CCC(N)=O)C(N)=O)[C@@H](C)CC)[C@@H](C)CC)[C@@H](C)O)[C@@H](C)O)C(C)C)C(C)C [Melittin]
PLA2 from bee venom [4]
  type of inhibition of bee venom PLA2: noncompetitive inhibitor
[5]; [15]
  Phospholipase A2 activity: 3.6 ± 0.9 × 10^−5 μmoles/min/mg of protein
[5]; [16]
  Phospholipase A2 activity: 2.96 ± 0.0 × 10^−3 μmoles/min/mg of protein
PLA2 from snake venom [6]; [15]
  Phospholipase A2 activity: 1.41 ± 0.84 μmoles/min/mg of protein
PLA2 from snake venom [6]; [16]
  Phospholipase A2 activity: 0.05 ± 0.03 μmoles/min/mg of protein
[7]; [15]
  Phospholipase A2 activity: 2.9 ± 0.0 × 10^−4 μmole/min ml
[7]; [16]
  Phospholipase A2 activity: 4.7 ± 0.0 × 10^−4 μmole/min ml
PLA2 from bee venom [8]
  EC50: 20 nM
  Phospholipase A2 activity: 801 ± 55.0 μmoles/min/mg of protein and 1315.0 ± 48.2 μmoles/min/mg of protein
  amount of synthetic melittin required to inhibit maximal PLA2 activity: 30 mM
[9]; [17]
  Phospholipase A2 activity: 0.06 ± 0.03 μmoles/min/mg of protein
[9]; [18]
  Phospholipase A2 activity: 1.51 ± 0.17 μmoles/min/mg of protein
PLA2 from snake venom [10]; [17]
  Phospholipase A2 activity: 61.5 ± 2.75 μmoles/min/mg of protein
PLA2 from snake venom [10]; [18]
  Phospholipase A2 activity: 59.13 ± 13.97 μmoles/min/mg of protein
[11]; [17]
  Phospholipase A2 activity: 5.5 ± 0.4 µmol/min/mL
[11]; [18]
  Phospholipase A2 activity: 43.65 ± 3.19 µmol/min/mL
[12]; Table 2A, follows Table 2
  Inhibitory Potency: 80%
[12]; peptide 1.0 μM, mean of three determinations
  Phospholipase A2 activity B(× 10^−3) [14C]-phosphatidylcholine: 0.055 ± 0.010 × 10^−3 μ moles/min/ml
[12]; rank order from Table 2
  order of inhibitory potency: MLT>G25>G22>G141>G27>G23
[13]; peptide 1.0 μM
  Phospholipase A2 activity C [3H]-oleic acid-E. coli: 0.50 ± 0.12 μ moles/min/ml
[13]; peptide 5.0 μM
  Phospholipase A2 activity C [3H]-oleic acid-E. coli: 0.12 ± 0.02 μ moles/min/ml
[13]; peptide 10 μM
  Phospholipase A2 activity C [3H]-oleic acid-E. coli: 0.06 ± 0.03 μ moles/min/ml
Human serum PLA2; Human serum PLA2 eluted from MLT-Sepharose column
  PLA2 activity: 219 ± 16.3 nano mol/min/ml
Human serum PLA2; eluate Centricon 30 concentrated (5 times)
  PLA2 activity: 192 ± 5.44 nano mol/min/ml
Human serum PLA2; eluate Centricon 30 pass through
  PLA2 activity: 172 ± 8.73 nano mol/min/ml
Human serum PLA2; fractions after concentration by centricon 10 or 30
  reduction in PLA2 activity in the presence of melittin: 4 fold
Phospholipase D (PLD)
  effect on phospholipase D (PLD): stimulates PLD
Phospholipase D (PLD); listed as synthetic melittin
  effect on phospholipase D (PLD): resulted in the formation of phosphatidic acid and release of arachidosic acid

## biotinylated synthetic melittin: biotinylated synthetic melittin used to coat microtiter plates
Synovial fluid PLA2
  interference of synovial fluid with streptavidin-peroxidase binding: dose-dependent interference

## GIGAVLKVLTTGLPALISWIKRKRQQ (modifications not checked) [synthetic melittin]
[14]
  molar ratio of melittin to PLA2 at maximal inhibition (mol melittin per mol PLA2): 30
